ChEMBL document CHEMBL1139251, “Urea based CCR3 antagonists employing a tetrahydro-1,3-oxazin-2-one spacer” (Bioorg Med Chem Lett, 2009)

Experiments:
[1] = biological target: T1, C-C chemokine receptor type 3 (Homo sapiens, UniProt P51677); test: Binding affinity to CCR3 receptor
T1 sequence (P51677 whole entry): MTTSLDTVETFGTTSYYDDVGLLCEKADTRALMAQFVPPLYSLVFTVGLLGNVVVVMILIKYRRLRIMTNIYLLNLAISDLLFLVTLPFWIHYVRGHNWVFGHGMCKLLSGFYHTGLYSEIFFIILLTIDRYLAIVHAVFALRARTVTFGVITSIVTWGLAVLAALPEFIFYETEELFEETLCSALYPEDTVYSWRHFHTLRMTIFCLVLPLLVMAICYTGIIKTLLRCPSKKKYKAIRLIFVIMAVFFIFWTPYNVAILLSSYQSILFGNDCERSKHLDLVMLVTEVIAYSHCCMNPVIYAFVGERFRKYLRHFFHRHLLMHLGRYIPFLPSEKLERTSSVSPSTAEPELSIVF

[2] = biological target: Cytochrome P450 2D6 (Homo sapiens, UniProt P10635); test: Inhibition of CYP2D6; assay type: ADME
Chain of Cytochrome P450 2D6 (P10635 whole entry): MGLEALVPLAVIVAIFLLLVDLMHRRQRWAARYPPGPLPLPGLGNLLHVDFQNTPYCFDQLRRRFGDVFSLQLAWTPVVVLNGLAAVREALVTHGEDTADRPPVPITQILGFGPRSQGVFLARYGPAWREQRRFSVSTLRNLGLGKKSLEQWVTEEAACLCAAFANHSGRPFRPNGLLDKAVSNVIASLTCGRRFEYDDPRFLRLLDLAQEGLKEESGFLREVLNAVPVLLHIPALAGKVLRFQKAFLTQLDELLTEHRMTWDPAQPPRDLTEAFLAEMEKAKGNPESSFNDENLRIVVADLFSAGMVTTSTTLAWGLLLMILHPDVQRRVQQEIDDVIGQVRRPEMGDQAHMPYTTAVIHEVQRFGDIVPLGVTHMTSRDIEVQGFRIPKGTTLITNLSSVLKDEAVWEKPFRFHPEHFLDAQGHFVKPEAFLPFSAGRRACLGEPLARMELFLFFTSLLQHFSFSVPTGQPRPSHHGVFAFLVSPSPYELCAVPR

[3] = test system: Eosinophil; test: Induction of shape change in human eosinophils by flow cytometry; assay type: functional, cell-based
[4] = biological target: Voltage-gated inwardly rectifying potassium channel KCNH2 (Homo sapiens, UniProt Q12809); test: Inhibition of human ERG by calcium-flux based assay
Chain of Voltage-gated inwardly rectifying potassium channel KCNH2 (Q12809 whole entry): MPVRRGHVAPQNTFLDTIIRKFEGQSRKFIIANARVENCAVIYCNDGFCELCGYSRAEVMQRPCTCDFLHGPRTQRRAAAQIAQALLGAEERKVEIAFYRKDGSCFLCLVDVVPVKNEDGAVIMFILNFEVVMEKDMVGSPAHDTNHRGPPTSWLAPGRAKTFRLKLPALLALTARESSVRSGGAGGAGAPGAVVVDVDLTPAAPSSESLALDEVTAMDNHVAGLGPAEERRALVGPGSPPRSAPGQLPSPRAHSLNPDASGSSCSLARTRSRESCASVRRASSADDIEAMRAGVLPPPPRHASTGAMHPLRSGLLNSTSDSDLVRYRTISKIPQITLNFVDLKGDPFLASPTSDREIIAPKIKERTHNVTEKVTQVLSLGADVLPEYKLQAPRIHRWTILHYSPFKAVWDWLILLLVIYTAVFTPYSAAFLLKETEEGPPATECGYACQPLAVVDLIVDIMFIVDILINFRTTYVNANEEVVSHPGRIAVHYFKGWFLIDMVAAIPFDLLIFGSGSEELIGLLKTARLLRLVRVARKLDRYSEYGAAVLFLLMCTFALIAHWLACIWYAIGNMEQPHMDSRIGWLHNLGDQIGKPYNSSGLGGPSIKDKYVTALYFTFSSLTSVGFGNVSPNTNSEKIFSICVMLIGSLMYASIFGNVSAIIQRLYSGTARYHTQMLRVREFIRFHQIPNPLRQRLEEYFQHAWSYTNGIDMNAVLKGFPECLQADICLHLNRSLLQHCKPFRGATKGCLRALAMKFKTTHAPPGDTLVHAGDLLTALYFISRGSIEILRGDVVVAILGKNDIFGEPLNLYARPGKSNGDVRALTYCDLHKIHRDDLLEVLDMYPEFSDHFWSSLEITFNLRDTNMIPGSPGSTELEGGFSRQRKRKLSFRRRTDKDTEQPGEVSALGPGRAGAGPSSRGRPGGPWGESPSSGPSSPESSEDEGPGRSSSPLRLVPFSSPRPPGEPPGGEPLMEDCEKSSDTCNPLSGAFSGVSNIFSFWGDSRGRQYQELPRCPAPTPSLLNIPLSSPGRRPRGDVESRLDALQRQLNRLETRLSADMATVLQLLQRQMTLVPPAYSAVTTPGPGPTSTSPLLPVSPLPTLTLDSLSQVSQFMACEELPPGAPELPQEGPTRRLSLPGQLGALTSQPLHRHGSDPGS

[5] = test system: Liver microsomes; test: Metabolic stability in human liver microsomes; assay type: ADME, Microsome

| Compound | IC50 [1] [nM] | IC50 [2] [nM] | IC50 ([3]; Homo sapiens, Eosinophil) [nM] | also measured |
| --- | --- | --- | --- | --- |
| C[C@@H](NC(=O)Nc1cccc(-c2nnnn2C)c1)[C@@H](O)CN1CCC[C@@H](Cc2ccc(F)cc2)C1 |  |  | 0.038 | Ki [2]: 2600 nM |
| CCCN(CCCc1ccc(F)cc1)C[C@@H]1OC(=O)N(C)C[C@H]1NC(=O)Nc1nc(C)cs1 | 9.2 |  |  |  |
| CN1CC(C)(NC(=O)Nc2nc(C(C)(C)C)cs2)C(CN2CCC[C@@H](Cc3ccc(F)cc3)C2)OC1=O (mixture of isomers; 22b) | 5.5 | 40000 |  |  |
| CN1CC(C)(NC(=O)Nc2nc(C(C)(C)C)cs2)C(CN2CCC[C@@H](Cc3ccc(F)cc3)C2)OC1=O (mixture of isomers; 22a) | 44 |  |  |  |
| CC(=O)c1sc(NC(=O)NC2(C)CN(C)C(=O)OC2CN2CCC[C@@H](Cc3ccc(F)cc3)C2)nc1C (mixture of isomers) | 1.1 | 21000 |  |  |
| Cc1csc(NC(=O)NC2(C)CN(C)C(=O)OC2CN2CCC[C@@H](Cc3ccc(F)cc3)C2)n1 (mixture of isomers; 20a) | 5.4 |  |  |  |
| CCN(CCCc1ccc(F)cc1)CC1OC(=O)N(C)CC1(C)NC(=O)Nc1cccc(-c2nnnn2C)c1 (mixture of isomers; 23b) | 0.47 | 14000 | > 3 |  |
| CN1C[C@@H](NC(=O)Nc2cccc(-c3nnnn3C)c2)[C@H](CN(CCCc2ccc(F)cc2)C2CC2)OC1=O | 2.1 |  | 2.2 |  |

More lines, main results first:

| IC50 [1] [nM] | IC50 [2] [nM] | IC50 ([3]; Homo sapiens, Eosinophil) [nM] | Compound | also measured |
| --- | --- | --- | --- | --- |
| 0.23 | 4300 |  | CN1C[C@@H](NC(=O)Nc2cccc(-c3nnnn3C)c2)[C@H](CN2CCC[C@@H](Cc3ccc(F)cc3)C2)OC1=O |  |
| 0.12 | 33000 |  | CN1CC(C)(NC(=O)Nc2cccc(-c3nnnn3C)c2)C(CN2CCC[C@@H](Cc3ccc(F)cc3)C2)OC1=O (mixture of isomers; 19a) | IC50 ([3]; eosinophil): 2.4 nM |
| 0.18 | 5900 |  | CCN(CCCc1ccc(F)cc1)CC1OC(=O)N(C)CC1(C)NC(=O)Nc1cccc(-c2nnnn2C)c1 (mixture of isomers; 23a) | IC50 ([3]; eosinophil): 4.4 nM |
| 0.15 | 17000 |  | CN1CC(C)(NC(=O)Nc2cccc(-c3nnnn3C)c2)C(CN2CCC[C@@H](Cc3ccc(F)cc3)C2)OC1=O.Cl (mixture of isomers; 19b) | IC50 [4]: 15700 nM; Stability [5]: Unstable; IC50 ([3]; eosinophil): 0.13 nM |
| 0.37 | 2100 | 3.4 | Cc1csc(NC(=O)NC2(C)CN(C)C(=O)OC2CN2CCC[C@@H](Cc3ccc(F)cc3)C2)n1 (mixture of isomers; 20b) |  |
